Laboratory results reported in patent US10130590B2, “Methods of treating cancer with atovaquone-related compounds” (DANA-FARBER CANCER INSTITUTE, INC., priority 2013, dated 2018).

Legend:
[1] = system: U266 human multiple myeloma cells; assay: U266 multiple myeloma xenograft in NSG mice; type: in vivo; settings: 200 mg/kg daily by oral gavage
Protocol: Female NSG mice (obtained from The Jackson Laboratory, Bar Harbor, Me.) were injected subcutaneously with 5×10^6 U266 cells in 30% Matrigel, and tumors were allowed to grow to a volume of approximately 100 mm^3. At that point, animals were treated daily by oral gavage with either vehicle (5% benzyl alcohol in water), generic atovaquone, or Mepron® brand atovaquone (GlaxoSmithKline LLC, Philadelphia, Pa.) at a dose of 200 mg/kg.

[2] = system: INA-6, U266 and HEL cells; assay: Annexin V/PI flow cytometry in STAT3-dependent cancer cells; type: cell-based; settings: INA-6 15 μM 24 hours; U266 and HEL 20 μM 48 hours
Protocol: (§1) Annexin V/PI staining was performed using Annexin V:FITC Apoptosis Detection Kit I (BD Biosciences). Staining for cell cycle analysis was performed as previously described (267). Staining for cell-surface receptors was performed in 50 μl PBS+2% FBS with 2 μl antibody to IL6R (BioLegend #352803) or 5 μl antibody to gp130 (BD Biosciences #555757) for 20 minutes on ice in the dark. Cells were washed twice, then resuspended in 300 μl of the same buffer. Samples were analyzed on a BD FACSCanto II machine. Transfection and siRNA Cells were reverse-transfected using Lipofectamine RNAiMAX (Invitrogen); the culture medium was changed 24 hours later. Control siRNA (D-001210-02) and REDD1 siRNA (M-010855-01) were from Thermo Scientific Dharmacon.
Next, the effect of atovaquone on the growth and survival of STAT3-dependent cancer cells was examined Survival of the multiple myeloma cell line INA-6 is exquisitely dependent on IL-6 added to culture medium and resultant STAT3 activation. […] The other cell lines with constitutively-active STAT3, U266 and HEL, were also killed by atovaquone.

gp130 = assay: Flow cytometry of cell-surface gp130; type: cell-based
Protocol: as §1
Since atovaquone reduced gp130 expression at the cell surface, it was asked whether this effect was accompanied by reduced total gp130 in the cell. To address this question, a time course of atovaquone treatment was performed and total cellular gp130 was measured by Western blotting in U266 cells treated with atovaquone at 20 μM. […] Thus, it was surmised that atovaquone also rapidly downregulates cell-surface gp130, paralleling STAT3 inhibition and preceding the decrease in total gp130. […] Loss of cell-surface gp130 may be due to decreased entry into the plasma membrane or increased internalization. In either case, the decrease in total gp130 observed at longer time points is likely due to degradation of relatively unstable intracellular gp130.

[3] = system: unfolded protein response (UPR); assay: Other UPR branches: XBP1 splicing, ATF6 cleavage, UPR target genes; type: cell-based
Protocol: Total RNA was reverse transcribed using random hexamers and assayed by qRT-PCR as previously described (see, Grivennikov S I, Greten F R, & Karin M (2010) Immunity, inflammation, and cancer. Cell 140(6):883-899).
In asking how atovaquone induces REDD1, a possible role for ATF4, which regulates REDD1 expression was considered. ATF4 is regulated mainly at the level of translation and is induced upon phosphorylation of eIF2α. […] K562 and AML2 cells, which lack STAT3 activation, were treated with rapamycin for 72 hours. […] For these reasons, it was hypothesized that atovaquone induces eIF2α phosphorylation, with a resulting increase in ATF4 protein and signaling. U266, K562, and SKBR3 cells were treated with atovaquone (20, 20, 25 μM respectively). […] The phospho-eIF2α/ATF4 pathway represents one branch of the UPR, whose other branches consist of ATF6 cleavage and IRE1-mediated XBP1 splicing. […] Thus, atovaquone selectively activates the phospho-eIF2α/ATF4 branch of the UPR. […] Consequently, atovaquone inhibition of STAT3 is not secondary to UPR activation.

STAT1 = STAT1 phosphorylation in cancer cells; type: cell-based
From the text: It has been discovered, using an unbiased gene expression-based approach, that atovaquone is a novel STAT3 inhibitor. Atovaquone acts by diminishing cell-surface gp130 expression and STAT3 tyrosine phosphorylation. As a consequence, critical STAT3 target genes mediating survival and proliferation are reduced, such as survivin, Bcl-2 family members, and cyclin D1. Moreover, atovaquone inhibits the viability of STAT3-dependent cancer cells by inducing apoptosis and disrupting cell cycle progression. […] Since STAT5 activation is crucial to cancer pathogenesis caused by JAK2-V617F, the additional inhibition of STAT5 in this context is a desirable effect of atovaquone. […] Because the effects of atovaquone on STAT activation are restricted to gp130-dependent signaling, atovaquone inhibits STATs more selectively than direct pharmacological JAK inhibition. […] At the same time, the actions of atovaquone extend to all cytokines that signal through gp130, including LIF and OSM, thereby exerting broader effects than therapies specifically directed against IL-6 or IL-6 receptor, such as monoclonal antibodies. This is also advantageous, since oncogenic effects of LIF and OSM have been reported.

O=C1C(O)=C([C@H]2CC[C@H](c3ccc(Cl)cc3)CC2)C(=O)c2ccccc21 [atovaquone, trans-2-[4-(4-chlorophenyl)cyclohexyl]-3-hydroxy-1,4-naphthalenedione]
median survival of the treated animals [1]: increase in the median survival
tumor growth rate ([1]; from tumor volume approximately 100 mm^3): prominent decrease in the growth rate
apoptosis (annexin V and PI staining) [2]: inducing apoptotic cell death
cell surface gp130 in INA-6 and HEL cells (gp130; INA-6 20 μM 4 hours, HEL 25 μM 6 or 16 hours): induced downregulation of cell surface gp130
cell-surface expression of gp130, flow cytometric time course (gp130; U266, 20 μM): rapidly inhibits the cell-surface expression of gp130
cell-surface expression of gp130 (gp130; U266, 2.5 hours, atovaquone 20 μM, JAK inhibitor 1 1 μM, brefeldin A 3 μg/ml): substantially downregulated the cell-surface expression of gp130
levels of BiP [3]: no effect on levels of BiP
ATF6 cleavage ([3]; SKBR3, K562, U266, 25, 20, 20 μM): did not induce
spliced XBP1 ([3]; U266, K562, SKBR3, 20, 20, 25 μM, 6 hours): did not induce spliced XBP1
UPR target gene expression ([3]; U266, K562, SKBR3, 6 hours, in contrast to tunicamycin and thapsigargin): did not induce any UPR target genes other than those downstream of ATF4
mutant JAK2-dependent phosphorylation of STAT1 (STAT1; HEL cells): inhibited
IL-6-dependent phosphorylation of STAT1 (STAT1; INA-6 and U266 cells): inhibited IL-6-dependent phosphorylation of STAT1
